Source: ChEMBL document CHEMBL4052632 (Eur J Med Chem, 2017)

Columns and labels:
A2780 [1] = assay: Antitumor activity against human A2780 cells xenografted in BALB/c nude mouse assessed as tumor growth inhibition at 50 mg/kg, ip administered once every 2 days for 14 consecutive days relative to control; type: functional; settings: read-out: TGI
A2780 [2] = assay: Antitumor activity against human A2780 cells xenografted in BALB/c nude mouse assessed as tumor growth inhibition at 30 mg/kg, ip administered once every 2 days for 14 consecutive days relative to control; type: functional; settings: read-out: TGI
A2780 [3] = assay: Induction of apoptosis in human A2780 cells assessed as total apoptotic cells at 5 to 20 uM after 24 hrs by annexin V/propidium iodide staining based flow cytometry (reference value: 17.3%); type: functional
A2780 [4] = assay: Antiproliferative activity against human A2780 cells measured after 48 hrs by MTT assay; type: functional, cell-based; settings: A2780, 48 h
[5] = target: Protein kinase C alpha type (Homo sapiens) (UniProt P17252); assay: Inhibition of recombinant human PKCalpha using biotinyl-beta Abeta Abeta AKIQASFRGHMARKK as substrate at 100 uM after 10 mins in presence of ATP relative to control
[6] = target: Dual specificity mitogen-activated protein kinase kinase 1 (Homo sapiens) (UniProt Q02750); assay: Inhibition of recombinant human MEK1 using inactivated ERK2 as substrate at 100 uM after 60 mins in presence of ATP relative to control
Sequence of Dual specificity mitogen-activated protein kinase kinase 1 (Homo sapiens) (Q02750 whole entry): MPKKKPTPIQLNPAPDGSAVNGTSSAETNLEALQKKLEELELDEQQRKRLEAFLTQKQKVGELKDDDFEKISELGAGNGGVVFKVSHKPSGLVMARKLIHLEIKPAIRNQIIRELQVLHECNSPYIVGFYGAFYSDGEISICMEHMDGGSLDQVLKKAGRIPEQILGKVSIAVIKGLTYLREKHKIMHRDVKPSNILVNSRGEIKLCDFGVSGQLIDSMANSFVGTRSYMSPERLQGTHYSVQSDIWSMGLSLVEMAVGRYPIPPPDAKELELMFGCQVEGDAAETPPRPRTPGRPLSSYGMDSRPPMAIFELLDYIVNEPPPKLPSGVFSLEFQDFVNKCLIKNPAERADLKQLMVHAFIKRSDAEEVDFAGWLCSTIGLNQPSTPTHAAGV

[7] = target: Mitogen-activated protein kinase 1 (Homo sapiens) (UniProt P28482); assay: Inhibition of human MAPK2 at 100 uM in presence of ATP relative to control
Sequence of Mitogen-activated protein kinase 1 (Homo sapiens) (P28482 whole entry): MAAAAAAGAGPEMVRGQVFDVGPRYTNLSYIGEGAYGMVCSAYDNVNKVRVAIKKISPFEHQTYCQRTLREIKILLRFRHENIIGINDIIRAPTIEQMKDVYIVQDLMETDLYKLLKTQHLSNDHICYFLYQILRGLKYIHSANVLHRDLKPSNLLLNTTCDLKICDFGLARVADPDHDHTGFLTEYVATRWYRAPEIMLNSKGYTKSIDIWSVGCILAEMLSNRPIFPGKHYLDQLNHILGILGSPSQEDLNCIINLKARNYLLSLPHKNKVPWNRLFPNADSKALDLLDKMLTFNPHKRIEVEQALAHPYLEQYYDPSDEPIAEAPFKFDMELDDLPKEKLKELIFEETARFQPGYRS

[8] = target: Mitogen-activated protein kinase 8 (Homo sapiens) (UniProt P45983); assay: Inhibition of human JNK1alpa1 using at 100 uM after 90 mins in presence of ATP relative to control
Sequence of Mitogen-activated protein kinase 8 (Homo sapiens) (P45983 whole entry): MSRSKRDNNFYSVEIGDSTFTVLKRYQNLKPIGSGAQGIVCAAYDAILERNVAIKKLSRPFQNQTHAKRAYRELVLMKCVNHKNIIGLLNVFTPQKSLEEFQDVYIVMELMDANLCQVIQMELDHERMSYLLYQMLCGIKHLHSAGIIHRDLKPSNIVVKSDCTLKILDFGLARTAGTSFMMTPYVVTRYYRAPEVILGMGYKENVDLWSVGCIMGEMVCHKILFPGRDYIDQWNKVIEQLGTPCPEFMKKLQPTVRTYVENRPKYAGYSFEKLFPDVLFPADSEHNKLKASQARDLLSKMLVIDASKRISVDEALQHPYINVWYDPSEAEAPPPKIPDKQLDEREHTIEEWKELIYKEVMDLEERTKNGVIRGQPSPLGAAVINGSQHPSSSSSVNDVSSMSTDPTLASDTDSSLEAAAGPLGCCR

[9] = target: Tyrosine-protein kinase receptor UFO (Homo sapiens) (UniProt P30530); assay: Inhibition of AXL (unknown origin) using poly (Glu, Tyr) 4:1 as substrate at 100 uM after 1 hr by ELISA relative to control
Sequence of Tyrosine-protein kinase receptor UFO (Homo sapiens) (P30530 whole entry): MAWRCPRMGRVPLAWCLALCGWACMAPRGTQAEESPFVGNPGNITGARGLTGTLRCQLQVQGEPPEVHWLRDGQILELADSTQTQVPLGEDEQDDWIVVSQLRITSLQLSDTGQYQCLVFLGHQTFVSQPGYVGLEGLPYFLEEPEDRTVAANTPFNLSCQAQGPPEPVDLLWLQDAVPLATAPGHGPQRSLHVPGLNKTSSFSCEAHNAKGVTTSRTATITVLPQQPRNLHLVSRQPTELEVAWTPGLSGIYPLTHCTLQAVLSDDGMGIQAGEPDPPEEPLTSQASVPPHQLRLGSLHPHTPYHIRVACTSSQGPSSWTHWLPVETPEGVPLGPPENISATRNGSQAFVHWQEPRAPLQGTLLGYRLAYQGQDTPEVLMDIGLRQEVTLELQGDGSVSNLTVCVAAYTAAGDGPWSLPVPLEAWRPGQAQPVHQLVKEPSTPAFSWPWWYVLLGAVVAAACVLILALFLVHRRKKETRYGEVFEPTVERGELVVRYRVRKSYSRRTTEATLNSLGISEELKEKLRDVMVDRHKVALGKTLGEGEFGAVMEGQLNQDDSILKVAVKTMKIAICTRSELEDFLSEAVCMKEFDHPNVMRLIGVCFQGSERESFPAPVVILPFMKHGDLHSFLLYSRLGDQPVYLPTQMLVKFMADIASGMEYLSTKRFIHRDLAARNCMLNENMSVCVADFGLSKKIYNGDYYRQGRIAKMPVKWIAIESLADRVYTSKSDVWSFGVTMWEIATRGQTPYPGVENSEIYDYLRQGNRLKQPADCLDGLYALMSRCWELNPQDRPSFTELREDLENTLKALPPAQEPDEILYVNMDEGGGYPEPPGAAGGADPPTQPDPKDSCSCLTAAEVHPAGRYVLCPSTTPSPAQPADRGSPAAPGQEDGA

[10] = target: ALK tyrosine kinase receptor (Homo sapiens) (UniProt Q9UM73); assay: Inhibition of ALK (unknown origin) using poly (Glu, Tyr) 4:1 as substrate at 100 uM after 1 hr by ELISA relative to control
Sequence of ALK tyrosine kinase receptor (Homo sapiens) (Q9UM73 19-1620 limits assumed): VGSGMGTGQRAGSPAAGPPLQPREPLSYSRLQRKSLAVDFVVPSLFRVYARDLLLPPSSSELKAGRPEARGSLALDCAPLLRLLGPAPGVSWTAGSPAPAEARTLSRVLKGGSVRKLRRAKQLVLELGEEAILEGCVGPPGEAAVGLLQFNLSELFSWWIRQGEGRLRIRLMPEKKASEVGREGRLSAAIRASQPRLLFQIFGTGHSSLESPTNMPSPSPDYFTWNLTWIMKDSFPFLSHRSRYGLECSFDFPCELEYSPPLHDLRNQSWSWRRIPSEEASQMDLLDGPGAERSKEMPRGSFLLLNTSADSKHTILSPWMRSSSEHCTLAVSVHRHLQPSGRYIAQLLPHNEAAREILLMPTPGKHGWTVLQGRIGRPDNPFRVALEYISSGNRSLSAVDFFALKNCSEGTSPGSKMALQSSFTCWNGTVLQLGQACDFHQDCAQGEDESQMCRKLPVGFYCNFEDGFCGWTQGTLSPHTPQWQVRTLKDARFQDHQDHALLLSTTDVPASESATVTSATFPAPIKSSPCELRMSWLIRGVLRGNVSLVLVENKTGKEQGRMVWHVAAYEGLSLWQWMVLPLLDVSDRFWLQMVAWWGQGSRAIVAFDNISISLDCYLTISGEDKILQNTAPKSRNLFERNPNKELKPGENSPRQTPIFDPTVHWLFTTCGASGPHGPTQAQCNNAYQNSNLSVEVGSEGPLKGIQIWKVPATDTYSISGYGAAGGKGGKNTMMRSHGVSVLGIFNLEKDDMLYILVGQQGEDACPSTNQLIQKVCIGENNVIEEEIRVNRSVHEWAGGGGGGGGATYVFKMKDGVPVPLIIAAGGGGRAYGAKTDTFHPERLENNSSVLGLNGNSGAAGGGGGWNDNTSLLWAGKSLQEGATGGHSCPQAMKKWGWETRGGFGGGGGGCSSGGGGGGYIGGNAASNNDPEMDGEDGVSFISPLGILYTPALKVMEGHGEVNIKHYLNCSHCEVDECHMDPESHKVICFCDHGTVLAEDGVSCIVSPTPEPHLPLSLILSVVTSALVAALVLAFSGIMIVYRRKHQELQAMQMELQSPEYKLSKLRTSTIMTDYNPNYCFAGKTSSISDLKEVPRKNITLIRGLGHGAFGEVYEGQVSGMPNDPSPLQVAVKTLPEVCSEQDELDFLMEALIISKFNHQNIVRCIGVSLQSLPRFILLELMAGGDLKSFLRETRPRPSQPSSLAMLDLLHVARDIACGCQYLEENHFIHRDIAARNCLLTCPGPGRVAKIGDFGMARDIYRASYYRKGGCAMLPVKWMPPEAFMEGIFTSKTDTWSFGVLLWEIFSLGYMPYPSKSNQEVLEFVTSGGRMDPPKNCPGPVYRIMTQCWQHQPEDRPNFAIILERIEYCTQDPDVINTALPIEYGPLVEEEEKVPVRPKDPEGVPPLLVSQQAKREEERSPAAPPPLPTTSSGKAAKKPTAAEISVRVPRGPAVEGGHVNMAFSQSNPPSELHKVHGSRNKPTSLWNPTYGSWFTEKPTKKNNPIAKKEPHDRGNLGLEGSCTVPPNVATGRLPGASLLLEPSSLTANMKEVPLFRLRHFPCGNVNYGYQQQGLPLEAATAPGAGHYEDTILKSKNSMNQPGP

[11] = target: Insulin-like growth factor 1 receptor (Homo sapiens) (UniProt P08069); assay: Inhibition of IGF1R (unknown origin) using poly (Glu, Tyr) 4:1 as substrate at 100 uM after 1 hr by ELISA relative to control
Sequence of Insulin-like growth factor 1 receptor (Homo sapiens) (P08069 31-736 limits assumed): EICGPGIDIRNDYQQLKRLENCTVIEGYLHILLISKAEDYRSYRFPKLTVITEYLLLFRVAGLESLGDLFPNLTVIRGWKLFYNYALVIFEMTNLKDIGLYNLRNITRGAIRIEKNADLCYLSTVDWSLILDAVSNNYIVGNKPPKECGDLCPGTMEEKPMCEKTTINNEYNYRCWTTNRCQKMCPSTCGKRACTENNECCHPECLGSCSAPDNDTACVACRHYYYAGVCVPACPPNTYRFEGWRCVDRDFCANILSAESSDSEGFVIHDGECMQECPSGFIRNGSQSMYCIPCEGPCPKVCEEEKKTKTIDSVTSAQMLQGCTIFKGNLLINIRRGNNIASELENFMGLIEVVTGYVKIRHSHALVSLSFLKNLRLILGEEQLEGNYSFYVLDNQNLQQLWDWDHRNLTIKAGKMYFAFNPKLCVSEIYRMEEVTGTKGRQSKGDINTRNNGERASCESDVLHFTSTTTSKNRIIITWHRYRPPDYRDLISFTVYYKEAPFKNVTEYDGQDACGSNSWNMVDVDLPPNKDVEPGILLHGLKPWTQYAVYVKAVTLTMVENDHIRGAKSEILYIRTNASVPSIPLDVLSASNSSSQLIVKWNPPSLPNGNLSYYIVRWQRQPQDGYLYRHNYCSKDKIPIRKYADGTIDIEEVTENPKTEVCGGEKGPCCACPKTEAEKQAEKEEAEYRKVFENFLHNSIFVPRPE
Sequence of Insulin-like growth factor 1 receptor (Homo sapiens) (P08069 741-1367 limits assumed): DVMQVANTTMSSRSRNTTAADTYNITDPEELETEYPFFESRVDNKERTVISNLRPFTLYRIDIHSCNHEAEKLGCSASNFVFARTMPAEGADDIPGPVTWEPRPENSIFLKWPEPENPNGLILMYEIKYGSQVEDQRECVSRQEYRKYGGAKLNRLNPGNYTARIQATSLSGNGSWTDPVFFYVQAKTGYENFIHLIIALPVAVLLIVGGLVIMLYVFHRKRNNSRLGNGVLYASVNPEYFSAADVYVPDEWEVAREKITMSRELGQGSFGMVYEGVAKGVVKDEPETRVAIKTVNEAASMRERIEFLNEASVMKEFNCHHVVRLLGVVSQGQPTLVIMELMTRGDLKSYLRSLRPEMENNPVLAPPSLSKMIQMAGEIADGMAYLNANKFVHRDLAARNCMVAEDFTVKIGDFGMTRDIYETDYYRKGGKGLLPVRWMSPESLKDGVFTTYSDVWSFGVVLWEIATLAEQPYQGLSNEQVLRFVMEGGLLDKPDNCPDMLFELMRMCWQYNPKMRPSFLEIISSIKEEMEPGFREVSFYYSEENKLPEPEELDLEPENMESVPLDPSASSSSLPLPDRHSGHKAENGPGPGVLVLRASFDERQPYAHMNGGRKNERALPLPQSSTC

A2780 [12] = assay: Cell cycle arrest in human A2780 cells assessed as decrease in S phase after 48 hrs by propidium iodide staining based flow cytometry; type: functional
Saccharomyces cerevisiae = assay: Inhibition of yeast CK1 using poly (Glu, Tyr) 4:1 as substrate after 1 hr by ELISA relative to control; settings: concentration not given here

In the case of `CCCCCCCCCCCCCCC(=O)NC1CCN(C(=O)C2Sc3ccccc3N(CC)C2=O)CC1` (stereo not drawn), the inhibition in vivo at 50 mg/kg (A2780 [1]) is reported as 41.3%, the inhibition in vivo at 30 mg/kg (A2780 [2]) is reported as 37.8% and the Activity (A2780 [3]) is reported as 83.3%. It also gave an IC50 (A2780 [4]) of 4.6 µM, an inhibition [5] of -7% and an inhibition [6] of 12%. For the same compound, the inhibition [7] was 7%, the inhibition [8] was -3% and the inhibition [9] was 33.8%. The inhibition [10] was -1.7%, the inhibition [11] was 5.1% and the Activity (A2780 [12]) was “Dose-dependent effect”. For the same compound, the inhibition (Saccharomyces cerevisiae) was 14%.
